{
  "source": "EPA's ToxRefDB 2",
  "key": {"rat [1]": {"test_system": "rat", "conditions": "Fertility (Segment I), sprague dawley, Oral, Gavage/Intubation, dose end: 7 PND"}, "dog": {"test_system": "dog", "conditions": "Sub-acute repeat dose toxicity; beagle; Oral; Gavage/Intubation; dose end: 1 month; group: systemic; systemic / in life observation / clinical signs / external lesion(s) + systemic / in life observation / clinical signs / reactivity to …"}, "rat [2]": {"test_system": "rat", "conditions": "Prenatal developmental toxicity study, sprague dawley, Oral, Gavage/Intubation, dose end: 17 GD"}, "rat [3]": {"test_system": "rat", "conditions": "Sub-acute repeat dose toxicity, sprague dawley, Oral, Gavage/Intubation, dose end: 1 month, group: systemic"}, "rat [4]": {"test_system": "rat", "conditions": "Prenatal developmental toxicity study, sprague dawley, Oral, Gavage/Intubation, dose end: 17 GD", "remark": "listed apart in the source"}, "rabbit": {"test_system": "rabbit", "conditions": "Prenatal developmental toxicity study, new zealand white, Oral, Gavage/Intubation, dose end: 19 GD"}, "rat [5]": {"test_system": "rat", "conditions": "Sub-acute repeat dose toxicity, sprague dawley, Oral, Gavage/Intubation, dose end: 1 month, group: systemic", "remark": "listed apart in the source"}, "rat [6]": {"test_system": "rat", "conditions": "Multigenerational reproductive toxicity study; sprague dawley; Oral; Gavage/Intubation; dose end: 17 GD; group: parental; systemic / in life observation / body weight / body weight + systemic / in life observation / food consumption / food consumption + systemic…"}, "mouse": {"test_system": "mouse", "conditions": "Subchronic oral toxicity in rodents, other, Feed, dose end: 13 week, group: systemic"}, "rat [7]": {"test_system": "rat", "conditions": "Subchronic oral toxicity in rodents, wistar, Feed, dose end: 13 week, group: systemic"}, "rat [8]": {"test_system": "rat", "conditions": "Combined chronic toxicity/carcinogenicity, wistar, Oral, Feed, dose end: 104 week, group: systemic"}, "[9]": {"conditions": "group: maternal, reproductive / reproductive performance / estrous cycle / abnormal + reproductive / reproductive performance / estrous cycle / corpora lutea…"}, "[10]": {"conditions": "group: parental, systemic / in life observation / body weight / body weight gain + systemic / in life observation / clinical signs / salivation + systemic / …"}, "[11]": {"conditions": "group: parental, systemic / in life observation / clinical signs / salivation"}, "[12]": {"conditions": "group: developmental, developmental / developmental malformation / bone / [other] + developmental / developmental malformation / bone / absent + developmental / …"}, "[13]": {"conditions": "group: maternal, reproductive / reproductive performance / postimplantation loss / postimplantation loss + reproductive / reproductive performance / …"}, "[14]": {"conditions": "group: maternal, systemic / in life observation / body weight / body weight gain + systemic / in life observation / food consumption / food consumption"}, "[15]": {"conditions": "systemic / in life observation / body weight / body weight + systemic / in life observation / body weight / body weight gain + systemic / in…"}, "[16]": {"conditions": "systemic / in life observation / clinical signs / body temperature"}, "[17]": {"conditions": "group: developmental, systemic / in life observation / body weight / fetal weight"}, "[18]": {"conditions": "group: maternal, systemic / in life observation / body weight / body weight gain + systemic / in life observation / clinical signs / body cold to touch + …"}, "[19]": {"conditions": "group: maternal, reproductive / reproductive performance / aborted / aborted + reproductive / reproductive performance / postimplantation loss / …"}, "[20]": {"conditions": "group: maternal, reproductive / reproductive performance / aborted / aborted + systemic / in life observation / clinical signs / body temperature + systemic…"}, "[21]": {"conditions": "systemic / clinical chemistry / cholesterol / cholesterol + systemic / organ weight / liver / absolute + systemic / organ weight / liver / …"}, "[22]": {"conditions": "systemic / pathology microscopic / liver / arteritis + systemic / pathology microscopic / liver / degeneration"}, "[23]": {"conditions": "systemic / clinical chemistry / urea nitrogen / urea nitrogen"}, "[24]": {"conditions": "systemic / clinical chemistry / urea nitrogen / urea nitrogen + systemic / clinical chemistry / alanine aminotransferase (alt/sgpt) / …"}, "[25]": {"conditions": "systemic / in life observation / body weight / body weight gain + systemic / clinical chemistry / cholesterol / cholesterol"}, "[26]": {"conditions": "systemic / hematology / erythrocyte (rbc) count differential / erythrocyte (rbc) + systemic / hematology / hematocrit (hct) / hematocrit (…"}},
  "data": [
    {"molecule": "O=C(Nc1ccc2[nH]ccc2c1)c1cc2cc(F)ccc2n1Cc1cccc(F)c1", "values": [
      {"measurement": "LEL", "setting": "rat [1]; [9]", "value": 6, "unit": "mg/kg/day"},
      {"measurement": "LOAEL", "setting": "rat [1]; [9]", "value": 6, "unit": "mg/kg/day"},
      {"measurement": "NEL", "setting": "rat [1]; [9]", "value": 1, "unit": "mg/kg/day"},
      {"measurement": "NOAEL", "setting": "rat [1]; [9]", "value": 1, "unit": "mg/kg/day"},
      {"measurement": "LOAEL", "setting": "rat [1]; [10]", "value": 6, "unit": "mg/kg/day"},
      {"measurement": "NOAEL", "setting": "rat [1]; [10]", "value": 1, "unit": "mg/kg/day"},
      {"measurement": "LEL", "setting": "rat [1]; [11]", "value": 1, "unit": "mg/kg/day"},
      {"measurement": "NEL", "setting": "rat [1]; [11]", "value": "< 1", "unit": "mg/kg/day"},
      {"measurement": "LEL", "setting": "dog", "value": 0.05, "unit": "mg/kg/day"},
      {"measurement": "LOAEL", "setting": "dog", "value": "> 1", "unit": "mg/kg/day"},
      {"measurement": "NEL", "setting": "dog", "value": "< 0.05", "unit": "mg/kg/day"},
      {"measurement": "NOAEL", "setting": "dog", "value": "≥ 1", "unit": "mg/kg/day"},
      {"measurement": "LEL", "setting": "rat [2]; [12]", "value": 6, "unit": "mg/kg/day"},
      {"measurement": "LOAEL", "setting": "rat [2]; [12]", "value": 6, "unit": "mg/kg/day"},
      {"measurement": "NEL", "setting": "rat [2]; [12]", "value": 1, "unit": "mg/kg/day"},
      {"measurement": "NOAEL", "setting": "rat [2]; [12]", "value": 1, "unit": "mg/kg/day"},
      {"measurement": "LOAEL", "setting": "rat [2]; [13]", "value": 6, "unit": "mg/kg/day"},
      {"measurement": "NOAEL", "setting": "rat [2]; [13]", "value": 1, "unit": "mg/kg/day"},
      {"measurement": "LEL", "setting": "rat [2]; [14]", "value": 1, "unit": "mg/kg/day"},
      {"measurement": "NEL", "setting": "rat [2]; [14]", "value": "< 1", "unit": "mg/kg/day"},
      {"measurement": "LOAEL", "setting": "rat [3]; [15]", "value": 100, "unit": "mg/kg/day"},
      {"measurement": "NOAEL", "setting": "rat [3]; [15]", "value": 2, "unit": "mg/kg/day"},
      {"measurement": "LEL", "setting": "rat [3]; [16]", "value": 2, "unit": "mg/kg/day"},
      {"measurement": "NEL", "setting": "rat [3]; [16]", "value": "< 2", "unit": "mg/kg/day"},
      {"measurement": "LEL", "setting": "rat [4]; [17]", "value": 10, "unit": "mg/kg/day"},
      {"measurement": "LOAEL", "setting": "rat [4]; [17]", "value": "> 400", "unit": "mg/kg/day"},
      {"measurement": "NEL", "setting": "rat [4]; [17]", "value": "< 10", "unit": "mg/kg/day"},
      {"measurement": "NOAEL", "setting": "rat [4]; [17]", "value": "≥ 400", "unit": "mg/kg/day"},
      {"measurement": "LEL", "setting": "rat [4]; [18]", "value": 10, "unit": "mg/kg/day"},
      {"measurement": "LOAEL", "setting": "rat [4]; [18]", "value": "> 400", "unit": "mg/kg/day"},
      {"measurement": "NEL", "setting": "rat [4]; [18]", "value": "< 10", "unit": "mg/kg/day"},
      {"measurement": "NOAEL", "setting": "rat [4]; [18]", "value": "≥ 400", "unit": "mg/kg/day"},
      {"measurement": "LEL", "setting": "rabbit; [17]", "value": 5, "unit": "mg/kg/day"},
      {"measurement": "LOAEL", "setting": "rabbit; [17]", "value": "> 900", "unit": "mg/kg/day"},
      {"measurement": "NEL", "setting": "rabbit; [17]", "value": "< 5", "unit": "mg/kg/day"},
      {"measurement": "NOAEL", "setting": "rabbit; [17]", "value": "≥ 900", "unit": "mg/kg/day"},
      {"measurement": "LOAEL", "setting": "rabbit; [19]", "value": "> 900", "unit": "mg/kg/day"},
      {"measurement": "NOAEL", "setting": "rabbit; [19]", "value": "≥ 900", "unit": "mg/kg/day"},
      {"measurement": "LEL", "setting": "rabbit; [20]", "value": 5, "unit": "mg/kg/day"},
      {"measurement": "NEL", "setting": "rabbit; [20]", "value": "< 5", "unit": "mg/kg/day"}
    ]},
    {"molecule": "NC(=O)N(O)[C@@H]1COc2cc(OCc3ccccc3)ccc21", "values": [
      {"measurement": "LOAEL", "setting": "rat [5]; [21]", "value": "> 1000", "unit": "mg/kg/day"},
      {"measurement": "NOAEL", "setting": "rat [5]; [21]", "value": "≥ 1000", "unit": "mg/kg/day"},
      {"measurement": "LEL", "setting": "rat [5]; [22]", "value": 100, "unit": "mg/kg/day"},
      {"measurement": "NEL", "setting": "rat [5]; [22]", "value": "< 100", "unit": "mg/kg/day"},
      {"measurement": "LEL", "setting": "rat [6]", "value": 1000, "unit": "mg/kg/day"},
      {"measurement": "LOAEL", "setting": "rat [6]", "value": "> 1000", "unit": "mg/kg/day"},
      {"measurement": "NEL", "setting": "rat [6]", "value": 100, "unit": "mg/kg/day"},
      {"measurement": "NOAEL", "setting": "rat [6]", "value": "≥ 1000", "unit": "mg/kg/day"}
    ]},
    {"molecule": "C[N+](C)(C)CCO.O=c1ccc([O-])n[nH]1", "values": [
      {"measurement": "LEL", "setting": "mouse; [23]", "value": 5620, "unit": "mg/kg/day"},
      {"measurement": "LOAEL", "setting": "mouse; [23]", "value": 5620, "unit": "mg/kg/day"},
      {"measurement": "NEL", "setting": "mouse; [24]", "value": 1100, "unit": "mg/kg/day"},
      {"measurement": "NOAEL", "setting": "mouse; [24]", "value": 1100, "unit": "mg/kg/day"},
      {"measurement": "LOAEL", "setting": "rat [7]; systemic / in life observation / body weight / body weight gain", "value": 4760, "unit": "mg/kg/day"},
      {"measurement": "LEL", "setting": "rat [7]; [25]", "value": 4760, "unit": "mg/kg/day"},
      {"measurement": "NEL", "setting": "rat [7]; [25]", "value": 1060, "unit": "mg/kg/day"},
      {"measurement": "NOAEL", "setting": "rat [7]; [25]", "value": 1060, "unit": "mg/kg/day"},
      {"measurement": "LEL", "setting": "rat [8]; [26]", "value": 18.1, "unit": "mg/kg/day"},
      {"measurement": "NEL", "setting": "rat [8]; [26]", "value": "< 18.1", "unit": "mg/kg/day"},
      {"measurement": "LOAEL", "setting": "rat [8]; systemic / in life observation / body weight / body weight + systemic / in life observation / body weight / body weight gain", "value": 1960, "unit": "mg/kg/day"},
      {"measurement": "NOAEL", "setting": "rat [8]; systemic / in life observation / body weight / body weight + systemic / in life observation / body weight / body weight gain + systemic / …", "value": 183, "unit": "mg/kg/day"}
    ]}
  ]
}
